Assay results as given in article PMC3376186 (Bioorganic & medicinal chemistry letters, 2012).

What was measured:
RORα = conditions: same FRET assay; reported; cited from earlier work
[1] = tested on: Rev-erbα-NCoR interaction; conditions: read-out: EC50, enhancement of Rev-erbα-NCoR interaction; FRET assay; cited from earlier work
Rev-erbβ = conditions: Luminex technology; cited from earlier work
LRH1 = conditions: same FRET assay; reported; cited from earlier work
LXRα = conditions: reporter-gene assay; reported; cited from earlier work
SF1 = conditions: same FRET assay; reported; cited from earlier work
Rev-erbα [2] = target: T1, Rev-erbα (Homo sapiens, UniProt P20393); conditions: Luminex technology; cited from earlier work
T1 sequence (P20393 1-614): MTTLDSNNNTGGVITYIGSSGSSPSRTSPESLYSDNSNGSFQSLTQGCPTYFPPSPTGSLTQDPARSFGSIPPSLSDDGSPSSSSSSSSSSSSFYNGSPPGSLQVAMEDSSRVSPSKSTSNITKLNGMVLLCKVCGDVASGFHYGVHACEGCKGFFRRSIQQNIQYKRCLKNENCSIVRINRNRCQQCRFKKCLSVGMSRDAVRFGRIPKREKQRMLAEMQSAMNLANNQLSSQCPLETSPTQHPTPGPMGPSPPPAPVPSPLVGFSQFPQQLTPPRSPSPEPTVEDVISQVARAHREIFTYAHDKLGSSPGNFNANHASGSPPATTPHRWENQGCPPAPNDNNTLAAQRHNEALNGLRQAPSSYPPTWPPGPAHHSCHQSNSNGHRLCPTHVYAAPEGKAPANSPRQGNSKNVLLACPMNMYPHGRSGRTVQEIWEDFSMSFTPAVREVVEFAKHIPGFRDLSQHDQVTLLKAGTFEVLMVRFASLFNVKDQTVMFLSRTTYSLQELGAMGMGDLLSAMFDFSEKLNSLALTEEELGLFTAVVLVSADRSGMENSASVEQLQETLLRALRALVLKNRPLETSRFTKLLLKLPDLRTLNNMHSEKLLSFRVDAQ

[3] = Mouse plasma and brain exposure after IP dose; assay type: in vivo, C57Bl6 mice
FXR = conditions: same FRET assay; reported; cited from earlier work
LXRβ = conditions: reporter-gene assay; reported; cited from earlier work
[4] = tested on: REV-ERB ligand binding domain (LBD) β; conditions: HEK293 cells, Gal4 DBD:REV-ERB LBD β; cited from earlier work
Rev-erbα [5] = target: T1, Rev-erbα; conditions: circular dichroism analysis; cited from earlier work
Rev-erbα [6] = target: T1, Rev-erbα; conditions: HEK293 cells, Gal4 DBD:REV-ERB LBD α; cited from earlier work

CC(C)(C)OC(=O)CN(Cc1ccc(Cl)cc1)Cc1ccc([N+](=O)[O-])s1 [Compound 1]
activity on RORα (RORα): no activity
EC50 [1]: 400 nM
interaction of Rev-erbβ with the NCoR peptide (Rev-erbβ): dose-dependently increased
activity on LRH1 (LRH1): no activity
activity on LXRα (LXRα): no activity
activity on SF1 (SF1): no activity
interaction of Rev-erbα with the NCoR peptide (Rev-erbα [2]): dose-dependently increased
b.p. (brain penetration) ([3]; mice, 10 mg/kg IP in 10:10:80 DMSO:Tween:water, t = 2h): 140%
activity on FXR (FXR): no activity
activity on LXRβ (LXRβ): no activity

CCOC(=O)N1CCC(CN(Cc2ccc(Cl)cc2)Cc2ccc([N+](=O)[O-])s2)C1 (stereo not drawn) [Compound 12e]
Rev-erb-dependent repressor activity (LBD β) [4]: dose-dependently increased
Direct binding to Rev-erbα (Rev-erbα [5]): confirmed
Rev-erb-dependent repressor activity (LBD α) (Rev-erbα [6]): dose-dependently increased
[Brain] ([3]; mice, 50 mg/kg IP in 15% cremaphor EL, brain levels at 8h): ^d8.7 μM

CS(=O)(=O)N1CCC(CN(Cc2ccc(Cl)cc2)Cc2ccc([N+](=O)[O-])s2)C1 (stereo not drawn) [Compound 12j]
Kp at 2 h ([3]; C57Bl6, mouse, brain, ip, 10 mg/kg): 2.42
